Series [1] in a line: Acute toxicity in mice, intraperitoneal. To be noted: mouse, in vivo, ip, mg/kg × 1, free acid. On the procedure:
The compounds of the present invention are, in general, less toxic than the parent antibiotic. Table II summarizes the acute toxicities of representative compounds in mice, expressed as LD50, when the compounds are administered intraperitoneally.

Series [2] has as its target cation transport ATPase in liver mitochondria. In words: In vitro inhibition of cation transport ATPase in liver mitochondria. The class given is biochemical. An excerpt: In yet another aspect, the compounds of this invention are active as inhibitors of the enzyme ATPase. ATPase, an alkali-metal-sensitive enzyme found in cell membranes, is involved in the energy necessary for active transport. "Active transport" refers to the energy-requiring series of operations whereby intracellular and extracellular fluids maintain their compositions. Inhibitors of ATPase reduce the energy required for active transport. Table III summarizes the results of in vitro tests measuring inhibition of cation transport ATPase in liver mitochondria [measured as half effective concentration (Ic50) in mcg/ml].

Series [3] deals with Staphylococcus aureus (H-Heatley strain, NRRL B-314). In words: Antibacterial bioassay (Westhead). The class given is cell-based. The note with it: S. aureus H-Heatley NRRL B-314 bioassay; free acid. An excerpt:
The compounds of this invention are useful antibacterial agents. In this aspect, these compounds may be used in the same manner in which the parent antibiotic is used, as described in U.S. Pat. No. 3,923,823. A bioassay for the antibacterial activity of A-23187 has been described by J. E. Westhead in Antimicrobial Agents and Chemotherapy 11 (5), 916-918 (1977). The test organism for this bioassay is Staphylococcus aureus (H-Heatley strain, NRRL B-314).

The conditions of series [4]: cited from earlier work.

Structures are written as SMILES. Entries after “also recorded” stand apart in the source; their conditions may differ.

For orientation: LD50 means the dose expected to kill half of the subjects tested. Lower therefore signals greater toxicity. For `CNc1ccc2oc(C[C@H]3O[C@@]4(CC[C@H]3C)O[C@H]([C@H](C)C(=O)c3cc(I)c[nH]3)[C@H](C)C[C@H]4C)nc2c1C(=O)O` [23-iodo-A-23187, 5-(methylamino)-2-[[3β,9α,11β-trimethyl-8-[1α-methyl-2-oxo-2-(4-iodo-1H-pyrrol-2-yl)ethyl]-1,7-dioxaspiro[5.5]undec-2β-yl]methyl]-4-benzoxazolecarboxylic acid], the median lethal dose (LD50) in series [1] turned out to be 25 mg/kg. Also, in series [2], the “half effective concentration (Ic50), ATPase induced by CaCl2” value was 5 µg/mL and the “half effective concentration (Ic50), ATPase induced by K^+ monazomycin” value is below 0.05 µg/mL. Further, the Bioassay in series [3] stood at 1331 µg/mL.

`CNc1ccc2oc(C[C@H]3O[C@@]4(CC[C@H]3C)O[C@H]([C@H](C)C(=O)c3cc(I)c(I)[nH]3)[C@H](C)C[C@H]4C)nc2c1C(=O)O` [23,24-diiodo-A-23187, 5-(methylamino)-2-[[3β,9α,11β-trimethyl-8-[1α-methyl-2-oxo-2-(4,5-diiodo-1H-pyrrol-2-yl)ethyl]-1,7-dioxaspiro-[5.5]undec-2β-yl]methyl]-4-benzoxazolecarboxylic acid] came in with an LD50 in series [1] of 100 mg/kg. Besides, the “half effective concentration (Ic50), ATPase induced by K^+ monazomycin” value in series [2] worked out at 0.8 µg/mL. Also, the Bioassay in series [3] amounted to 560 µg/mL.

Regarding `CNc1ccc2oc(C[C@H]3O[C@@]4(CC[C@H]3C)O[C@H]([C@H](C)C(=O)c3ccc[nH]3)[C@H](C)C[C@H]4C)nc2c1C(=O)O` [A-23187], in series [1], the LD50 is 5.8 mg/kg. Also, the “transport of Mg^2+ compared with Ca^2+” value in series [4] (Mg^2+ vs Ca^2+) is given as “transports Mg^2+ with a similar efficiency to Ca^2+”. The “discrimination for divalent over monovalent cations” value in series [4] (divalent vs monovalent cations) is “substantially selective for the transport of divalent over monovalent cations; also recorded: not complete”. Besides, in series [2], the “half effective concentration (Ic50), ATPase induced by CaCl2” value worked out at 0.5 µg/mL and the “half effective concentration (Ic50), ATPase induced by K^+ monazomycin” value is 0.5 µg/mL. Moreover, the Bioassay in series [3] was 1060 µg/mL.

The values are drawn from US4228293A, “Iodo-A-23187 derivatives” (Eli Lilly and Company, priority 1978, dated 1980).
